The structures appear in SMILES notation.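 Compound exposure: 48 hours, 5 concentrations, 96-well plates. TGI: total growth inhibition.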

Test systems include BT-549 breast; NCI-H522 lung; SW-620 colon; CAKI-1 renal; NCI/ADR-RES ovarian; DU-145 prostate; SNB-19 CNS; HS 578T breast; SK-MEL-2 melanoma; OVCAR-4 ovarian; PC-3 prostate; NCI-H23 lung.
What all share (test): inhibition of tumour cell growth, NCI panel, 48 h

With `CCCCCCCCCCCC(=O)OC[C@@H](C[As](=O)(O)O)OC(=O)CCCCCCCCCCC`, the TGI with BT-549 breast is 9.91 µM; in the experiment with NCI-H522 lung, 6.5 µM; with SW-620 colon it was 29.1 µM; with CAKI-1 renal, 23.8 µM; in the experiment on NCI/ADR-RES ovarian, 36.6 µM; in the experiment with DU-145 prostate, 36.6 µM. Further, the TGI with SNB-19 CNS was 10.8 µM; with HS 578T breast it was 29.4 µM; in the experiment on SK-MEL-2 melanoma, 7.48 µM; in the experiment on OVCAR-4 ovarian, 29.1 µM; in the experiment with PC-3 prostate, 8.14 µM; with NCI-H23 lung, 17.8 µM.
With `Cc1[nH]n(-c2nc(O)c(-c3ccccc3)c(=O)[nH]2)c(=O)c1CCO`, the TGI in the experiment with BT-549 breast, in the experiment on NCI-H522 lung, in the experiment with SW-620 colon, in the experiment on CAKI-1 renal, with NCI/ADR-RES ovarian and in the experiment on DU-145 prostate was more than 100 µM in each case. Further, the TGI with SNB-19 CNS, in the experiment with HS 578T breast, in the experiment on SK-MEL-2 melanoma, in the experiment on OVCAR-4 ovarian, in the experiment on PC-3 prostate and with NCI-H23 lung was more than 100 µM in each case.
Take `CC(NC(=O)Cc1ccccc1)NC(=O)C(C)C(=O)NCc1ccccc1` (centres undefined): the TGI in the experiment on BT-549 breast was 75 µM; with NCI-H522 lung, more than 100 µM; in the experiment with SW-620 colon, more than 100 µM; with CAKI-1 renal it was more than 100 µM; in the experiment with NCI/ADR-RES ovarian, more than 100 µM; in the experiment with DU-145 prostate, more than 100 µM. For the same compound, the TGI in the experiment with SNB-19 CNS is 58.8 µM; in the experiment with HS 578T breast, 83.3 µM; with SK-MEL-2 melanoma, more than 100 µM; with OVCAR-4 ovarian it was more than 100 µM; in the experiment on PC-3 prostate, more than 100 µM; in the experiment on NCI-H23 lung, more than 100 µM.
Turning to `O=[N+]([O-])c1c(F)c(F)c2c(c1F)N(CCCCCl)c1ccccc1S2`, the TGI is 28 µM in the experiment with BT-549 breast; 12.3 µM in the experiment on NCI-H522 lung; 8.78 µM in the experiment with SW-620 colon; 19.3 µM in the experiment with CAKI-1 renal; 37.5 µM in the experiment with NCI/ADR-RES ovarian; 26.1 µM with DU-145 prostate. Moreover, the TGI with SNB-19 CNS was found to be 19.5 µM; in the experiment with HS 578T breast it was 74.4 µM; in the experiment with SK-MEL-2 melanoma it was 8.18 µM; in the experiment on OVCAR-4 ovarian, 21.2 µM; in the experiment on PC-3 prostate, 12.7 µM; in the experiment on NCI-H23 lung it was 21.7 µM.
Consider `CC1CC(Nc2ccc(Br)cc2)N(C(=O)c2ccc(Br)cc2)O1` (centres undefined), for which the TGI in the experiment on BT-549 breast, with NCI-H522 lung, in the experiment with SW-620 colon, with CAKI-1 renal, in the experiment on NCI/ADR-RES ovarian and with DU-145 prostate was more than 10 µM throughout. Further, the TGI in the experiment with SNB-19 CNS, with HS 578T breast, in the experiment on SK-MEL-2 melanoma, in the experiment with OVCAR-4 ovarian, with PC-3 prostate and in the experiment on NCI-H23 lung was more than 10 µM each time.
For the compound `COc1cccc(CC(=O)N2CCN(CCCc3ccccc3)CC2)c1`, the TGI in the experiment on BT-549 breast is more than 100 µM; in the experiment on NCI-H522 lung, more than 100 µM; in the experiment on SW-620 colon, more than 100 µM; with CAKI-1 renal it was more than 100 µM; with NCI/ADR-RES ovarian, 94.3 µM; in the experiment with DU-145 prostate it was more than 100 µM. Also, the TGI in the experiment with SNB-19 CNS, in the experiment on HS 578T breast, in the experiment with SK-MEL-2 melanoma, in the experiment with OVCAR-4 ovarian, in the experiment with PC-3 prostate and in the experiment with NCI-H23 lung was more than 100 µM in each case.
In the case of `CN1CC=C(c2c(N)nc(N)[nH]c2=O)CC1`, the TGI in the experiment with BT-549 breast, in the experiment with NCI-H522 lung, in the experiment on SW-620 colon, in the experiment with CAKI-1 renal, with NCI/ADR-RES ovarian and in the experiment with DU-145 prostate was more than 100 µM in each case. For the same compound, the TGI with SNB-19 CNS, with HS 578T breast, in the experiment with SK-MEL-2 melanoma, in the experiment on OVCAR-4 ovarian, with PC-3 prostate and in the experiment with NCI-H23 lung was more than 100 µM in each case.

The values above are taken from PubChem BioAssay (NCI).
